Data published in the supplement of paper PMC6004109.

Key:
Settings in all cases: temperature: 37 °C
[1] = tested on: Saccharomyces cerevisiae ZIM 2269 (RPMI); assay: Bliss independence sum of statistically significant ΔE (measured minus predicted growth inhibition) over checkerboard surface (fraction (sum of ΔE; 1 = 100%)); higher = more synergy
[2] = tested on: Candida glabrata ZIM 2365 (RPMI); assay: as above
[3] = tested on: Saccharomyces cerevisiae ZIM 2566 (RPMI); assay: as above
[4] = tested on: Candida glabrata ZIM 2385 (RPMI); assay: as above
[5] = tested on: Candida glabrata ZIM 2382 (RPMI); assay: as above
[6] = tested on: Saccharomyces cerevisiae ZIM 2255 (RPMI); assay: as above
[7] = tested on: Saccharomyces cerevisiae ZIM 2558 (RPMI); assay: as above
[8] = tested on: Saccharomyces cerevisiae ZIM 2260 (RPMI); assay: as above
[9] = tested on: Saccharomyces cerevisiae ZIM 2247 (RPMI); assay: as above
[10] = tested on: Candida glabrata ZIM 2389 (RPMI); assay: as above
[11] = tested on: Candida glabrata ZIM 2369 (RPMI); assay: as above
[12] = tested on: Candida glabrata ZIM 2344 (RPMI); assay: as above
[13] = tested on: Candida glabrata ZIM 2385 (RPMI); assay: FICI minimum (fractional inhibitory concentration index, Loewe) (dimensionless); higher = less synergy / more antagonism
Experimental: (§1)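 CLSI M27-A3 checkerboard broth microdilution of an immunomodulatory drug (or amoxicillin) combined with an antifungal against S. cerevisiae and C. glabrata isolates. Growth was read as OD600 after incubation at 37 °C (48 h for the reported MICs). Reported quantities are the FICI (Loewe: MIC50 for azoles and immunomodulators, MIC90 for AMB; ≤0.5 synergy, ≥4 antagonism), as minimum and maximum over the surface, and the Bliss-independence sum of statistically significant ΔE (positive = synergy). Clinical isolates were tested in RPMI; C. glabrata ATCC 2001 and its pdr1Δ mutant were tested in YPD.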

[14] = tested on: Saccharomyces cerevisiae ZIM 2558 (RPMI); assay: as above
Experimental: as §1

[15] = tested on: Saccharomyces cerevisiae ZIM 2269 (RPMI); assay: FICI maximum (fractional inhibitory concentration index, Loewe) (dimensionless); higher = less synergy / more antagonism
Experimental: as §1

[16] = tested on: Candida glabrata ZIM 2365 (RPMI); assay: as above
Experimental: as §1

[17] = tested on: Saccharomyces cerevisiae ZIM 2566 (RPMI); assay: as above
Experimental: as §1

[18] = tested on: Candida glabrata ZIM 2385 (RPMI); assay: as above
Experimental: as §1

[19] = tested on: Candida glabrata ZIM 2382 (RPMI); assay: as above
Experimental: as §1

[20] = tested on: Saccharomyces cerevisiae ZIM 2255 (RPMI); assay: as above
Experimental: as §1

[21] = tested on: Saccharomyces cerevisiae ZIM 2558 (RPMI); assay: as above
Experimental: as §1

[22] = tested on: Saccharomyces cerevisiae ZIM 2260 (RPMI); assay: as above
Experimental: as §1

[23] = tested on: Saccharomyces cerevisiae ZIM 2247 (RPMI); assay: as above
Experimental: as §1

[24] = tested on: Candida glabrata ZIM 2389 (RPMI); assay: as above
Experimental: as §1

[25] = tested on: Candida glabrata ZIM 2369 (RPMI); assay: as above
Experimental: as §1

[26] = tested on: Candida glabrata ZIM 2344 (RPMI); assay: as above
Experimental: as §1

| SMILES | Bliss independence sum [1] | Bliss independence sum [2] | Bliss independence sum [3] | Bliss independence sum [4] | Bliss independence sum [5] | Bliss independence sum [6] | Bliss independence sum [7] | Bliss independence sum [8] | Bliss independence sum [9] | Bliss independence sum [10] | Bliss independence sum [11] | Bliss independence sum [12] | FICI minimum [13] | FICI minimum [14] | FICI maximum [15] | FICI maximum [16] | FICI maximum [17] | FICI maximum [18] | FICI maximum [19] | FICI maximum [20] | FICI maximum [21] | FICI maximum [22] | FICI maximum [23] | FICI maximum [24] | FICI maximum [25] | FICI maximum [26] |
| --- | --- | --- | --- | --- | --- | --- | --- | --- | --- | --- | --- | --- | --- | --- | --- | --- | --- | --- | --- | --- | --- | --- | --- | --- | --- | --- |
| CC1(C)S[C@@H]2[C@H](NC(=O)[C@H](N)c3ccc(O)cc3)C(=O)N2[C@H]1C(=O)O [amoxicillin] + CCC(C)n1ncn(-c2ccc(N3CCN(c4ccc(OCC5COC(Cn6cncn6)(c6ccc(Cl)cc6Cl)O5)cc4)CC3)cc2)c1=O [itraconazole] | 0.212 | 3.78 | -0.787 | -0.894 | -0.629 | 0.234 | 0.394 | 0.613 | -3.04 | 0.79 | 0.313 | 3 | 1.01 | 0.508 | 1.25 | 1.25 | 2.12 | 1.25 | 2.25 | 1.25 | 0.75 | 1.25 | 1.25 | 1.25 | 1.25 | 0.375 |
| C=CC[C@@H]1/C=C(\C)C[C@H](C)C[C@H](OC)[C@H]2O[C@@](O)(C(=O)C(=O)N3CCCC[C@H]3C(=O)O[C@H](/C(C)=C/[C@@H]3CC[C@@H](O)[C@H](OC)C3)[C@H](C)[C@@H](O)CC1=O)[C@H](C)C[C@@H]2OC [tacrolimus] + CCC(C)n1ncn(-c2ccc(N3CCN(c4ccc(OCC5COC(Cn6cncn6)(c6ccc(Cl)cc6Cl)O5)cc4)CC3)cc2)c1=O [itraconazole] | 4.75 | 2.36 | 9.53 | 5.63 | 1.94 | 7.07 | 8.75 | 10.8 | 6.82 | 8.47 | 3.73 | 5.44 | 0.0725 | 0.25 | 2.5 | 1.01 | 1 | 0.5 | 1 | 0.502 | 0.51 | 0.5 | 0.52 | 0.126 | 0.5 | 0.5 |
| CN(Cc1cnc2nc(N)nc(N)c2n1)c1ccc(C(=O)N[C@@H](CCC(=O)O)C(=O)O)cc1 [methotrexate] + CCC(C)n1ncn(-c2ccc(N3CCN(c4ccc(OCC5COC(Cn6cncn6)(c6ccc(Cl)cc6Cl)O5)cc4)CC3)cc2)c1=O [itraconazole] | -0.796 | 2.18 | 1.34 | -0.777 | -1.18 | 1.41 | 1.01 | -0.71 | 0.35 | 0.179 | -0.495 | -0.688 | 0.505 | 0.656 | 1.16 | 1.16 | 1.16 | 2.16 | 2.16 | 1.08 | 1.08 | 2.04 | 1.16 | 2.04 | 1.16 | 1.16 |
| COc1c(C)c2c(c(O)c1C/C=C(\C)CCC(=O)O)C(=O)OC2 [mycophenolic acid] + OC(Cn1cncn1)(Cn1cncn1)c1ccc(F)cc1F [fluconazole] | -3.9 | -4.84 | -0.316 | -0.722 | -1.7 | -3.66 | -8.75 | -1.55 | -2.82 | 1.41 | -2.4 | 6.94 | 0.508 | 1.01 | 2.25 | 8.5 | 2.27 | 2.25 | 4.25 | 2.02 | 4.25 | 2.02 | 2.53 | 2.25 | 4.25 | 1.25 |
| CC1(C)S[C@@H]2[C@H](NC(=O)[C@H](N)c3ccc(O)cc3)C(=O)N2[C@H]1C(=O)O [amoxicillin] + C[C@@H]1[C@H](O)[C@@H](C)/C=C/C=C/C=C/C=C/C=C/C=C/C=C/[C@H](O[C@@H]2O[C@H](C)[C@@H](O)[C@H](N)[C@@H]2O)C[C@@H]2O[C@](O)(C[C@@H](O)C[C@@H](O)[C@H](O)CC[C@@H](O)C[C@@H](O)CC(=O)O[C@H]1C)C[C@H](O)[C@H]2C(=O)O [amphotericin B] | 2.97 | 2.12 | -0.244 | 2.19 | 0.631 | -2.26 | -2.25 | 0.295 | -2.91 | 2.34 | -0.462 | 1.9 | 0.508 | 2.02 | 1.25 | 1.25 | 4.25 | 1.25 | 1.25 | 1.25 | 8.78 | 1.25 | 1.25 | 1.25 | 1.25 | 1.25 |
